We go through 22 compounds from patent US8604217B2, “Compound, a process for its preparation, a pharmaceutical composition, use of a compound, a method for modulating or regulating serine/threonine kinases and a serine/threonine kinases modulating agent” (Selvita S.A., priority 2009, dated 2013).

Format in all cases: cell-based
In assay [1] the test system is human myelomonocytic, biphenotypic leukemia MV4-11 cells. As to the kind of experiment: Growth inhibition test (MTS) on MV4-11 cells. The following applies: Homo sapiens, MV4-11, 72 hours, read-out: MV-4-11 ED50. In a few lines: MV4-
Assay [2] deals with human breast adenocarcinoma MCF7 cells. As to the kind of experiment: Growth inhibition test (MTS) on MCF7 cells. As to conditions: Homo sapiens, MCF7, 72 hours, read-out: MCF-7 ED50. The method, boiled down: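 MCF7 cells seeded in DMEM with 10% FCS, dosed next day at 0.1–10 micromol/L (diluted from 10 mmol/L DMSO stock) and cultured 72 h at 37° C, 5% CO2. MTS added for 2 h, absorbance read at 490 nm; % viability calculated relative to untreated cells as 100%.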

Assay [3] has as its system human erytroblast leukemia HEL-92.1.7 cells. The experiment in a line: Growth inhibition test (MTS) on HEL-92.1.7 cells. As to conditions: 72 hours, read-out: HEL92 ED50. The method, then:
Ten thousand cells of human erytroblast leukemia HEL-92.1.7 were inoculated into each well of a 96-well microplate (manufactured by Corning Corp.) using RPMI 1640 medium (culture medium) containing 10% fetal calf serum (FCS). Next day, a dimethyl sulfoxide (DMSO) solution of each test compound prepared in a concentration of 10 mmol/L was further diluted with culture medium to the desired concentrations (0.1, 0.5, 1, 2.5, 5 and 10 micromol/L), and the diluted solution was added to each well. The individual wells were further cultured in 5% carbon dioxide at 37° C. for 72 hours. After completion of the culture, 10 μl MTS (3-(4,5-Dimethyl-2-thiazolyl)-5-(carboxymethoxyphenyl)-2-(4-sulfophenyl)-2H-tetrazolium, inner salt assay (CellTiter96® AQueous One Solution Cell Proliferation Assay, Promega) was added to each well, and culturing was performed in 5% carbon dioxide at 37° C. for 2 hours. Using a microplate spectrophotometer (Synergy 2 multi-mode microplate reader (BioTek)), the absorbance of each well was measured at 490 nm. The value for cells not incorporated with a test compound was designated as 100%. By comparing these values with the absorbance difference obtained at the well in which each test compound was added, the cell viability (% viability) after treatment with the test compound was calculated.

Assay [4] has as its system human acute lymphocytic leukemia E6.1 Jurkat cells. The experiment in a line: Growth inhibition test (MTS) on E6.1 Jurkat cells. The following applies: 72 hours, read-out: Jurkat ED50.

Structures are written as SMILES.

Turning to `NCCCNc1nc2c(Br)c(Br)c(Br)c(Br)c2[nH]1` [Compound 11, N-(3-aminopropyl)-4,5,6,7-tetrabromo-1H-benzo[d]imidazol-2-amine], the IC50 in assay [1] is 1.03 µM; in assay [2] it was 4.7 µM; in assay [3], 5.7 µM; in assay [4], 3.46 µM.
With `NC1CCC(Nc2nc3c(Br)c(Br)c(Br)c(Br)c3[nH]2)CC1` (stereo not drawn) [Compound 87, N1-(4,5,6,7-tetrabromo-1H-benzo[d]imidazol-2-yl)cyclohexane-1,4-diamine], the IC50 in assay [1] worked out at 4.2 µM; in assay [2] it was 5.62 µM; in assay [3], 9.07 µM; in assay [4] it was 5.81 µM.
On to `NC1CCCC(Nc2nc3c(Br)c(Br)c(Br)c(Br)c3[nH]2)C1` (stereo not drawn) [Compound 336, N1-(4,5,6,7-tetrabromo-1H-benzo[d]imidazol-2-yl)cyclohexane-1,3-diamine], for which the figures for the IC50 in assay [1] and in assay [2] were 2.6 µM and 6.2 µM, respectively.
For `Brc1c(Br)c(Br)c2[nH]c(N[C@H]3COC[C@@H]3N3CCCC3)nc2c1Br` [Compound 337, 4,5,6,7-tetrabromo-N-((3R,4R)-tetrahydro-4-(pyrrolidin-1-yl)furan-3-yl)-1H-benzo[d]imidazol-2-amine], the IC50 in assay [1] came to 2.45 µM; in assay [2], 1.78 µM; in assay [3], 4.5 µM.
For the compound `Brc1c(Br)c(Br)c2[nH]c(N[C@H]3COC[C@@H]3N3CCCCC3)nc2c1Br` [Compound 338, 4,5,6,7-tetrabromo-N-((3R,4R)-tetrahydro-4-(piperidin-1-yl)furan-3-yl)-1H-benzo[d]imidazol-2-amine], the IC50 in assay [1] was determined as 3.3 µM; in assay [2], 2.5 µM; in assay [3], 5.68 µM.
`NCc1ccccc1CNc1nc2c(Br)c(Br)c(Br)c(Br)c2[nH]1` [Compound 349, N-(2-(aminomethyl)benzyl)-4,5,6,7-tetrabromo-1H-benzo[d]imidazol-2-amine]: the IC50 in assay [1] is 1.58 µM; in assay [2] it was 2.75 µM; in assay [3], 6 µM.
As to `CN1CCCC(Nc2nc3c(Br)c(Br)c(Br)c(Br)c3[nH]2)CC1` (stereo not drawn) [Compound 358, 4,5,6,7-tetrabromo-N-(1-methylazepan-4-yl)-1H-benzo[d]imidazol-2-amine], the IC50 was found to be 1 µM in assay [1], 3.03 µM in assay [2] and 7.65 µM in assay [3].
On the same counts, the results for `C[C@@H]1CN(c2nc3c(Br)c(Br)c(Br)c(Br)c3[nH]2)[C@@H](C)CN1` [Compound 364, 4,5,6,7-tetrabromo-2-((2S,5R)-2,5-dimethylpiperazin-1-yl)-1H-benzo[d]imidazole] are 1.97 µM, 1.6 µM and 5.57 µM.
`Brc1c(Br)c(Br)c2[nH]c(NC3CCCNCC3)nc2c1Br` (stereo not drawn) [Compound 366, N-(azepan-4-yl)-4,5,6,7-tetrabromo-1H-benzo[d]imidazol-2-amine]: the IC50 came to 0.6 µM in assay [1], 2.15 µM in assay [2] and 5.1 µM in assay [3].
Regarding `CC(C)NC1CCCCC1Nc1nc2c(Br)c(Br)c(Br)c(Br)c2[nH]1` (stereo not drawn) [Compound 369, N1-(4,5,6,7-tetrabromo-1H-benzo[d]imidazol-2-yl)-N2-isopropylcyclohexane-1,2-diamine], the IC50 was found to be 1.3 µM in assay [1], 1.6 µM in assay [2] and 6.2 µM in assay [3].
As for `Brc1c(Br)c(Br)c2c(nc(N3CCNCC3)n2Cc2ccccc2)c1Br` [Compound 374, 1-benzyl-4,5,6,7-tetrabromo-2-(piperazin-1-yl)-1H-benzo[d]imidazole], the IC50 amounted to 1.3 µM in assay [1], 1.5 µM in assay [2] and 3 µM in assay [3].
`CN(C)C1CCCN(c2nc3c(Br)c(Br)c(Br)c(Br)c3[nH]2)C1` (stereo not drawn) [Compound 378, 1-(4,5,6,7-tetrabromo-1H-benzo[d]imidazol-2-yl)-N,N-dimethylpiperidin-3-amine]: the IC50 in assay [1] stood at 6.15 µM; in assay [2], 6.19 µM; in assay [3] it was 9.04 µM.
Turning to `Brc1c(Br)c(Br)c2[nH]c(N3CCC(C4CCNCC4)CC3)nc2c1Br` [Compound 386, 4,5,6,7-tetrabromo-2-(4-(piperidin-4-yl)piperidin-1-yl)-1H-benzo[d]imidazole], the IC50 in assay [1] came to 3.31 µM; in assay [2] it was 2.47 µM; in assay [3] it was 6.12 µM.
As to `CCCCCNC1CCCCC1Nc1nc2c(Br)c(Br)c(Br)c(Br)c2[nH]1` (stereo not drawn) [Compound 413, N1-(4,5,6,7-tetrabromo-1H-benzo[d]imidazol-2-yl)-N2-pentylcyclohexane-1,2-diamine], the results for the IC50 in assay [1], in assay [2] and in assay [3] were 1.55 µM, 1.3 µM and 3.29 µM, respectively.
Consider `CCCn1c(N2CCNCC2)nc2c(Br)c(Br)c(Br)c(Br)c21` [Compound 417, 4,5,6,7-tetrabromo-2-(piperazin-1-yl)-1-propyl-1H-benzo[d]imidazole], for which the IC50 worked out at 0.56 µM in assay [1], 2.54 µM in assay [2] and 3.28 µM in assay [3].
Turning to `Brc1c(Br)c(Br)c2[nH]c(NC3CCNCC3)nc2c1Br` [Compound 435, 4,5,6,7-tetrabromo-N-(piperidin-4-yl)-1H-benzo[d]imidazol-2-amine], the IC50 in assay [1] was 0.68 µM; in assay [2], 3.49 µM; in assay [3], 5.71 µM.
`CCn1c(N2CCN(CCN3CCNCC3)CC2)nc2c(Br)c(Br)c(Br)c(Br)c21` [Compound 441, 4,5,6,7-tetrabromo-1-ethyl-2-(4-(2-(piperazin-1-yl)ethyl)piperazin-1-yl)-1H-benzo[d]imidazole]: the IC50 in assay [1] amounted to 0.7 µM; in assay [2] it was 1.3 µM; in assay [3], 0.6 µM.
As for `CCn1c(N2CCN(CCCN3CCOCC3)CC2)nc2c(Br)c(Br)c(Br)c(Br)c21` [Compound 450], the IC50 in assay [1] amounted to 0.6 µM; in assay [2], 2 µM; in assay [3], 0.8 µM.
With `Brc1c(Br)c(Br)c2c(Br)n[nH]c2c1Br` [Compound K64, 3,4,5,6,7-pentabromo-1H-indazole, reference compound], the IC50 in assay [1] and in assay [4] was greater than 10 µM throughout.
Regarding `CN(C)c1nc2c(Br)c(Br)c(Br)c(Br)c2n1CC(=O)O` [Compound K66, 1-carboxymethyl-2-dimethylamino-4,5,6,7-tetrabromo-benzimidazole, reference compound], the IC50 in assay [1] and in assay [4] was greater than 10 µM in each case.
Turning to `Brc1c(Br)c(Br)c2[nH]nnc2c1Br` [TBB, 4,5,6,7-tetrabromo-1Hbenzotriazole, reference compound], the IC50 in assay [1] and in assay [4] was greater than 10 µM in each case.
Take `Brc1c(Br)c(Br)c2[nH]cnc2c1Br` [TBI, 4,5,6,7-tetrabromo-1H-benzimidazole, reference compound]: the IC50 in assay [1] and in assay [4] was greater than 10 µM throughout.
